Source: patent publication US20210330611A1, “THERAPY FOR NEUROLOGICAL DISEASES/DISORDERS” (priority 2020, published 2021)
Several values for one entry are separate records, joined by “and”; a condition that tells them apart may be missing. Identical values can stand only once. Counter-ions that a name gives are not always drawn. Like-named read-outs stand apart in the source and are kept apart here.

Key:
[1] = system: fibrin-induced microglia activation; assay: Image-based assay of fibrin-induced microglia activation (HTS and dose response); format: cell-based, rat; conditions: for inhibition at 10 µM: Rattus norvegicus, Microglia, read-out: Fibrin % inhibition
[2] = system: LPS-induced microglia activation; assay: Image-based assay of LPS-induced microglia activation (HTS and dose response); format: cell-based, rat; conditions: for inhibition at 10 µM: Rattus norvegicus, Microglia, read-out: LPS % inhibition
[3] = system: fibrin- and LPS-induced microglia activation; assay: cells; format: cell-based, rat; conditions: for inhibition at 10 µM: Rattus norvegicus, Microglia
primary rat microglia [4] = system: primary rat microglia;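 on Fibrin % cell toxicity: share of dead cells sized under 150 µm2 at 10 µM in fibrin-stimulated microglia HTS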
primary rat microglia [5] = system: primary rat microglia; remark: listed apart in the source;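 on Fibrin % cell toxicity: share of dead cells sized under 150 µm2 at 10 µM in fibrin-stimulated microglia HTS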
[6] = primary microglia HTS, fibrin stimulation, compounds at 10 μM
[7] = primary microglia HTS, LPS stimulation, compounds at 10 μM
[8] = quadrant by fibrin and LPS inhibition, HTS at 10 μM
[9] = primary microglia HTS, 10 μM, fibrin-stimulated, cell size >800 μm^2 as marker of activation
[10] = primary microglia HTS, 10 μM, LPS-stimulated, cell size >800 μm^2 as marker of activation
[11] = HTS of 1907 compounds, quadrant by fibrin and LPS inhibition
[12] = primary microglia HTS, fibrin stimulation, increased cell size (>800 μm^2) as marker of activation
[13] = 48 h, primary microglia HTS, LPS stimulation, increased cell size (>800 μm^2) as marker of activation
[14] = classification by fibrin and LPS inhibition, HTS at 10 μM
[15] = quadrant by fibrin and LPS inhibition in HTS of 1907 compounds

CO[C@H]1C[C@@H]2CC[C@@H](C)[C@@](O)(O2)C(=O)C(=O)N2CCCC[C@H]2C(=O)O[C@H]([C@H](C)C[C@@H]2CC[C@@H](O)[C@H](OC)C2)CC(=O)[C@H](C)/C=C(\C)[C@@H](O)[C@@H](OC)C(=O)[C@H](C)C[C@H](C)/C=C/C=C/C=C/1C [Sirolimus]
inhibition at 10 µM [1, 6]: 108%
inhibition at 10 µM [2, 7]: 81%
Quadrant (FIG. 5b) [3, 8]: Q2
Fibrin % cell toxicity (primary rat microglia [4]; rat): 4%
LPS % cell toxicity (primary rat microglia [5]; rat): 1%

C[C@H]1O[C@@H](n2cc(F)c(=O)[nH]c2=O)[C@H](O)[C@@H]1O [5-fluoro-5′-deoxyuridine, Doxifluridine]
Fibrin % inhibition [1, 6]: −27%
LPS % inhibition [2, 7]: 9%
Quadrant (FIG. 5b) [3, 8]: Q4
Fibrin % cell toxicity (primary rat microglia [4]): 1%
LPS % cell toxicity (primary rat microglia [5]): 0%

COc1ccc(CN(CCN(C)C)c2ncccn2)cc1 [Thonzylamine Hydrochloride]
inhibition at 10 µM [1, 9]: -21%
inhibition at 10 µM [2, 10]: 6%
Quadrant (FIG. 5b) [3, 11]: Q4
Fibrin % cell toxicity (primary rat microglia [4]; rat): 0%
LPS % cell toxicity (primary rat microglia [5]; rat): 0%

Oc1ccc2ccccc2c1 [Beta-naphthol]
inhibition at 10 µM [1]: -17%
inhibition at 10 µM [2]: 15%
Quadrant (FIG. 5b) [3]: Q4
Fibrin % cell toxicity (primary rat microglia [4]; rat): 0%
LPS % cell toxicity (primary rat microglia [5]; rat): 0%

CN(C)CCCN1c2ccccc2CCc2ccccc21 [Imipramine]
inhibition at 10 µM [1, 12]: -4%
inhibition at 10 µM [2, 13]: 60%
Fibrin % cell toxicity (primary rat microglia [4]; rat): 0%
LPS % cell toxicity (primary rat microglia [5]; rat): 1%

COc1ccc([C@@H]2Sc3ccccc3N(CCN(C)C)C(=O)[C@@H]2OC(C)=O)cc1 [Diltiazem Hydrochloride]
Fibrin % inhibition ([1]; primary microglia HTS, fibrin stimulation, compounds at 10 μM, 10 µM): −5%
LPS % inhibition ([2]; primary microglia HTS, LPS stimulation, compounds at 10 μM, 10 µM): 15%
Quadrant (FIG. 5b) [3, 14]: Q4
Fibrin % cell toxicity (primary rat microglia [4]; rat): 0%
LPS % cell toxicity (primary rat microglia [5]; rat): 0%

O=c1n(CCCN2CCN(c3cccc(Cl)c3)CC2)nc2ccccn12 [Trazodone]
inhibition at 10 µM [1]: -10%
inhibition at 10 µM [2]: -2%
Quadrant (FIG. 5b) [3]: Q4
Fibrin % cell toxicity (primary rat microglia [4]; rat): 0%
LPS % cell toxicity (primary rat microglia [5]; rat): 0%

COc1cc([C@@H]2c3cc4c(cc3[C@H](O)[C@H]3COC(=O)[C@H]23)OCO4)cc(OC)c1OC [Podofilox/Podophyllotoxin]
Fibrin % inhibition [1, 12]: 110%
LPS % inhibition ([2]; primary microglia HTS, LPS stimulation, increased cell size (>800 μm^2) as marker of activation): 107%
Quadrant (FIG. 5b) [3, 15]: Q2
Fibrin % cell toxicity (primary rat microglia [4]): 8%
LPS % cell toxicity (primary rat microglia [5]): 9%

CCOC(=O)c1ncn2c1CN(C)C(=O)c1cc(F)ccc1-2 [Flumazenil]
inhibition at 10 µM ([1]; primary microglia HTS, fibrin stimulation, activation = cell size >800 μm2): 5%
inhibition at 10 µM ([2]; 48 h, primary microglia HTS, LPS stimulation, activation = cell size >800 μm2): 14%
Quadrant (FIG. 5b) [3, 15]: Q4
Fibrin % cell toxicity (primary rat microglia [4]; rat): 1%
LPS % cell toxicity (primary rat microglia [5]; rat): 1%

NC(=O)[C@@H]1CCCN1C(=O)[C@H](Cc1cnc[nH]1)NC(=O)[C@@H]1CCC(=O)N1 [Protirelin]
Fibrin % inhibition ([1]; primary microglia HTS, fibrin stimulation, cell size >800 μm2 as marker of activation): 2%
LPS % inhibition [2]: 15%
Quadrant (FIG. 5b) ([3]; classification by fibrin and LPS inhibition in HTS): Q4
Fibrin % cell toxicity (primary rat microglia [4]): 1%
LPS % cell toxicity (primary rat microglia [5]): 1%

CCOC(=O)[C@H](CCc1ccccc1)N[C@@H](C)C(=O)N1CCC[C@H]1C(=O)O [Enalapril]
inhibition at 10 µM [1, 6]: 24%
inhibition at 10 µM [2, 7]: 6%
Quadrant (FIG. 5b) [3, 14]: Q4
Fibrin % cell toxicity (primary rat microglia [4]; rat): 1%
LPS % cell toxicity (primary rat microglia [5]; rat): 1%

CCC(COC(=O)c1cc(OC)c(OC)c(OC)c1)(c1ccccc1)N(C)C (stereo not shown) [Trimebutine]
inhibition at 10 µM [1, 9]: -11%
inhibition at 10 µM [2, 10]: 13%
Quadrant (FIG. 5b) [3, 11]: Q4
Fibrin % cell toxicity (primary rat microglia [4]; rat): 1%
LPS % cell toxicity (primary rat microglia [5]; rat): 0%

CC(=O)Nc1ccc(O)cc1 [Acetaminophen]
inhibition at 10 µM [1]: 14%
inhibition at 10 µM [2]: 22%
Fibrin % cell toxicity (primary rat microglia [4]; rat): 0%
LPS % cell toxicity (primary rat microglia [5]; rat): 0%

CN(C)CCC=C1c2ccccc2COc2ccccc21 [Doxepin]
LPS % inhibition ([2]; 10 µM): 13%
inhibition at 10 µM [2]: 16%
Quadrant (FIG. 5b) [3]: Q4
Fibrin % cell toxicity (primary rat microglia [4]; rat): 1%
LPS % cell toxicity (primary rat microglia [5]; rat): 0%

C=C1CC[C@H](O)C/C1=C/C=C1\CCC[C@]2(C)[C@@H]([C@H](C)CCCC(C)C)CC[C@@H]12 [Cholecalciferol]
Fibrin % inhibition ([1]; primary HTS, 10 μM, fibrin-stimulated primary microglia): −10% and −17%
Quadrant (FIG. 5b) ([3]; primary HTS, 10 μM): Q4
Fibrin % cell toxicity (primary rat microglia [4]; rat): 1%
LPS % cell toxicity (primary rat microglia [5]; rat): 0%

CC(C)OC(=O)C(C)(C)Oc1ccc(C(=O)c2ccc(Cl)cc2)cc1 [Fenofibrate]
Quadrant (FIG. 5b) [3, 14]: Q4
Fibrin % cell toxicity (primary rat microglia [4]; rat): 1%
LPS % cell toxicity (primary rat microglia [5]; rat): 0%

C[C@@H]1C[C@H]2[C@@H]3CCC4=CC(=O)C=C[C@]4(C)[C@@]3(F)[C@@H](O)C[C@]2(C)[C@@]1(O)C(=O)COP(=O)(O)O [Dexamethasone sodium phosphate, reference compound]
Quadrant (FIG. 5b) [3]: Q2
inhibition at 10 µM ([3]; read-out: Cherry-picked Hit (Suppl. Table 7)): > 50%
inhibition at 10 µM ([3]; read-out: Hit): > 50%
Fibrin % cell toxicity (primary rat microglia [4]; rat): 2%
LPS % cell toxicity (primary rat microglia [5]; rat): 3%

CC1(C)NC(=O)N(c2ccc([N+](=O)[O-])c(C(F)(F)F)c2)C1=O [Nilutamide]
Quadrant (FIG. 5b) [3, 15]: Q4
Fibrin % cell toxicity (primary rat microglia [4]; rat): 1%
LPS % cell toxicity (primary rat microglia [5]; rat): 0%

CN[C@H]1CC[C@@H](c2ccc(Cl)c(Cl)c2)c2ccccc21 [Sertraline]
Quadrant (FIG. 5b) [3]: Q4
Fibrin % cell toxicity (primary rat microglia [4]; rat): 1%
LPS % cell toxicity (primary rat microglia [5]; rat): 0%

CCN(CC)CCOC(=O)C1(C2CCCCC2)CCCCC1 [Dicyclomine]
Quadrant (FIG. 5b) [3]: Q4
Fibrin % cell toxicity (primary rat microglia [4]; rat): 0%
LPS % cell toxicity (primary rat microglia [5]; rat): 0%

Cc1ccccc1C(OCCN(C)C)c1ccccc1 (stereo not shown) [Orphenadrine]
Quadrant (FIG. 5b) [3]: Q4
Fibrin % cell toxicity (primary rat microglia [4]; rat): 0%
LPS % cell toxicity (primary rat microglia [5]; rat): 0%

Cinnarazine
Quadrant (FIG. 5b) [3]: Q4
Fibrin % cell toxicity (primary rat microglia [4]): 1%
LPS % cell toxicity (primary rat microglia [5]): 0%

Betamethasone sodium phosphate [reference compound]
Cherry-picked Hit (Suppl. Table 7) [3]: HIT (key: HIT: Hits were defined as molecules that exhibited greater than 50% inhibition of either fibrin or LPS activation)
Hit [3]: HIT (key: HIT: Hits were defined as molecules that exhibited greater than 50% inhibition of either fibrin or LPS activation)
Quadrant (FIG. 5b) [3]: Q2
Fibrin % cell toxicity (primary rat microglia [4]): 2%
LPS % cell toxicity (primary rat microglia [5]): 3%

CCCCCCCCCCCCCCCC[n+]1ccccc1 [Cetylpyridinium Bromide]
Quadrant (FIG. 5b) [3]: Q2
Fibrin % cell toxicity (primary rat microglia [4]; rat): 25%
LPS % cell toxicity (primary rat microglia [5]; rat): 39%

COc1cc2nc(N3CCN(C(=O)c4ccco4)CC3)nc(N)c2cc1OC [Prazosin]
inhibition at 10 µM [1, 12]: 43%
inhibition at 10 µM [2, 13]: 118%
Fibrin % cell toxicity (primary rat microglia [4]; rat): 3%
LPS % cell toxicity (primary rat microglia [5]; rat): 77%

Clc1ccccc1CN1CCc2sccc2C1 [Ticlopidine]
inhibition at 10 µM [1]: -13%
inhibition at 10 µM [2]: 22%
Fibrin % cell toxicity (primary rat microglia [4]; rat): 1%
LPS % cell toxicity (primary rat microglia [5]; rat): 0%

N[C@@H](Cc1cc(I)c(Oc2ccc(O)c(I)c2)c(I)c1)C(=O)O [Liothyronine]
inhibition at 10 µM ([2]; 48 h): 21%
Quadrant (FIG. 5b) [3]: Q4
Fibrin % cell toxicity (primary rat microglia [4]; rat): 1%
LPS % cell toxicity (primary rat microglia [5]; rat): 1%

CS(=O)(=O)CCNCc1ccc(-c2ccc3ncnc(Nc4ccc(OCc5cccc(F)c5)c(Cl)c4)c3c2)o1 [Lapatinib]
Quadrant (FIG. 5b) [3, 15]: Q4
Fibrin % cell toxicity (primary rat microglia [4]; rat): 1%
LPS % cell toxicity (primary rat microglia [5]; rat): 0%

C[C@@H]1C[C@H]2[C@@H]3CCC4=CC(=O)C=C[C@]4(C)[C@@]3(F)[C@@H](O)C[C@]2(C)[C@@]1(O)C(=O)COP(=O)(O)O [Dexamethasone Phosphate]
Quadrant (FIG. 5b) [3, 15]: Q2
Fibrin % cell toxicity (primary rat microglia [4]; rat): 5%
LPS % cell toxicity (primary rat microglia [5]; rat): 2%
